These are literature values, as cited in patent US11167277B2, “Cu(I)-catalyzed azide-alkyne cycloadditions (CuAAC) ligands and methods for carrying out Cu(I)-catalyzed azide-alkyne cycloaddition reactions” (UNIVERSITY OF PITTSBURGH-OF THE COMMONWEALTH SYSTEM OF …, priority 2014, dated 2021).

The data set has as its system Zebrafish embryos. The following applies: co-treatment with 1 mM CuSO4, 1.5 mM sodium ascorbate and 0.1 mM TBTA; toxicity attributed to copper(I).

Where only a bound is given, the exact number is not on record here.

With `c1ccc(Cn2cc(CN(Cc3cn(Cc4ccccc4)nn3)Cc3cn(Cc4ccccc4)nn3)nn2)cc1` [TBTA], the “time beyond which Zebrafish embryos do not survive” value is at most 15 min.
